For data set [1] the following is noted: subjects taking INT131 versus pioglitazone; DePaoli, et al. Diabetes Care 2014; cited from earlier work.
The subject of data set [2] is adiponectin. In words: 14-day study in healthy subjects: serum adiponectin levels. The format is in vivo, human. The protocol: A study was conducted to determine the effect of INT131 on serum adiponectin levels. Thirty healthy subjects were randomly selected to receive either placebo, 0.1 mg INT131, 1 mg INT131 or 4 mg INT131 daily for 14 days. To measure adiponectin levels blood was drawn at Days 1, 4, 8 and 14.

For data set [3], the system named is HbA1c. In words: 24-week study in type 2 diabetes subjects: HbA1c levels. The format is in vivo, human.
For data set [4], the system named is adiponectin. In words: 24-week randomized, double-blind, placebo-controlled study in type 2 diabetes subjects: serum adiponectin levels. The format is in vivo, human. The protocol:
A randomized, double-blind, placebo-controlled, 24-week study was conducted in which adiponectin levels were measured. […] 367 subjects with type 2 diabetes (TD2)—a disease in which patient adiponectin levels are reduced—were randomly assigned to receive either 0.5, 1, 2 or 3 milligrams (“mg”) of INT131 besylate, 45 mg of pioglitazone or placebo daily for 24 weeks. To measure adiponectin levels blood was drawn at Weeks 0, 2, 6, 12 and 24. At baseline (Week 0) mean adiponectin levels were 1.94 micrograms per milliliter (“μg/mL”). The mean adiponectin levels at baseline and Week 24, and the mean change in adiponectin levels from baseline (Week 0) to Week 24 are disclosed in Table 1, below. The standard deviation for samples tested in each group is listed in (parenthesis). Mean baseline adiponectin values were similar for the treatment groups.

In data set [5] the test system is HbA1c. The following applies: DePaoli, et al. Diabetes Care 2014; cited from earlier work.
Data set [6] concerns R6/2 Huntington's mice. In words: R6/2 Huntington's mice: Huntington disease signs and symptoms. It counts as in vivo, mouse. The following applies: R6/2 mice; 1 mg/kg, 3 mg/kg, and 6 mg/kg. The protocol: INT-131 is evaluated in R6/2 Huntington's mice. R6/2 mice express mutant human exon 1 of the HTT gene. R6/2 mice develop Huntington phenotypes, which progress over time. These mice display motor and cognitive deficits, cortical cellular degeneration and striatal cellular morphological changes, as well as alterations in cortical and striatal synaptic transmission. In particular, R6/2 mice develop a loss of coordination, tremors, hypokinesis, abnormal gait, neuropathy, and premature death. After mice develop Huntington symptoms, the mice are administered INT-131 or a placebo at a regular dosing interval over a period of time. INT-131 doses include 1 mg/kg, 3 mg/kg, and 6 mg/kg. Huntington disease signs and symptoms are evaluated in each group over the period of time. After mice develop Huntington symptoms, the mice are administered INT-131 or another therapy for treating Huntington's disease at a regular dosing interval over a period of time. INT-131 doses include 1 mg/kg, 3 mg/kg, and 6 mg/kg. Other therapies include those approved for treatment and those in development for treating Huntington's disease.

`O=S(=O)(Nc1cc(Cl)c(Oc2cnc3ccccc3c2)c(Cl)c1)c1ccc(Cl)cc1Cl` [INT131]: the “side effects compared with pioglitazone” value in data set [1] is “less edema, weight gain, and hemodilution”. In data set [2] (0.1 mg INT131 daily for 14 days), the “change in serum adiponectin levels Day 1 to Day 14 and over placebo” value was “no significant change”. Also, the “change in serum adiponectin levels over placebo and from Day 1 to Day 14” value in data set [2] (1 mg or 4 mg INT131 daily for 14 days) is recorded as “significant change”. The “HbA1c levels as compared to placebo” value in data set [3] (1, 2, and 3 mg doses of INT131, 24 weeks) is “statistically significant reduction”. For the same compound, the “reduction of HbA1c levels compared with 45 mg of pioglitazone” value in data set [3] (2 and 3 mg doses of INT131, 24 weeks) is “at least as well as 45 mg of pioglitazone”. Besides, in data set [4] (0.5 mg, 1 mg, and 3 mg doses of INT131, p≤0.0408), the “adiponectin levels, treatment comparison with pioglitazone 45 mg” value is recorded as “statistically significant”. The “adiponectin levels, treatment comparison with placebo” value in data set [4] (1 mg, 2 mg, and 3 mg doses of INT131, p≤0.0109) is recorded as “statistically significant”. Further, the “mean change in adiponectin from baseline to Week 24 with LOCF” value turned out to be 3.27 µg/mL in data set [4] (2 mg group), 0.56 µg/mL in data set [4] (INT131 0.5 mg group), 1.28 µg/mL in data set [4] (INT131 1 mg group) and 3.83 µg/mL in data set [4] (INT131 3 mg group). For the same compound, the “upregulation of serum adiponectin levels compared with pioglitazone” value in data set [4] (INT131 at either 2 or 3 mg versus 45 mg pioglitazone) is recorded as “greater upregulation”. Moreover, in data set [5], the “reducing HbA1c levels compared with 45 mg of pioglitazone” value is recorded as “equally efficacious”. Also, the “Huntington's disease symptoms versus placebo” value in data set [6] is “reduced Huntington's disease symptoms”. Further, the “progression and development of Huntington's disease versus placebo” value in data set [6] is “slows progression and development”. Moreover, the “slowing progression or development and treating signs and symptoms of Huntington's disease versus another therapy” value in data set [6] is “as effective, or more effective”.
Take `CCc1ccc(CCOc2ccc(CC3SC(=O)NC3=O)cc2)nc1` (centres unmarked) [Pioglitazone, pioglitazone, reference compound]: the “mean change in adiponectin from baseline to Week 24 with LOCF” value in data set [4] (pioglitazone 45 mg group) was determined as 2.96 µg/mL.

The record behind these values is patent publication US20190350918A1, “PPARy AGONIST FOR TREATMENT OF HUNTINGTON'S DISEASE” (Coherus Biosciences, Inc., priority 2017, published 2019).
